Assay results: US20160022751A1, “NOVEL COMPOSITION FOR TREATING ALZHEIMER'S DISEASE AND IMPROVING COGNITIVE FUNCTION OF ALZHEIMER'S PATIENTS” (GANGNEUNG-WONJU NATIONAL UNIVERSITY INDUSTRY ACADEMY …, priority 2014, published 2016)

Key:
acetylcholine = experiment: Acetylcholine content in culture medium of N2a cells (assay kit); type: cell-based, mouse; conditions: culture medium of N2a cells, 1, 2.5 and 5 μg/ml, 48 h (FIG. 7F)
Description: Further, the present inventor measured contents of acetylcholine in culture medium of N2a cells treated with Rd and/or […] (1, 2.5 and 5 μg/ml) for 48 h using a commercial acetylcholine assay kit (Cell Biolabs, USA), based on the enzyme driven reaction that will detect acetylcholine via acetylcholine esterase enzyme and choline oxidase according to the manufacturer's instruction (FIG. 7F).

ERK = ERK phosphorylation in N2a cells (western blot); type: cell-based, mouse; conditions: compared with NGF (FIG. 10)
Text: (§1) The cholinergic marker ChAT and VAChT are known activate the ERK and Akt lower level path for cholinergic gene expression (Williams et al., Neurosci. Lett., 413: 110-114, 2007; Madziar et al., J. Neurochem., 107: 1284-1293, 2007) by controlling the NGF-TrkA signaling pathway. Thus, the present inventor investigated whether ginsenosides Rd and Re regulate activity of ERK and Akt in N2a cells using through western blot analysis. Specifically, N2a cells were lysed in 1% radioimmunoprecipitation assay (RIPA) buffer containing protease and phosphatase inhibitors (Roche, Mannheim, Germany) and whole cell lysates were separated by 10% sodium dodecyl sulfate polyacrylamide gel electrophoresis (SDS-PAGE). After electrophoresis, proteins were transferred onto polyvinylidene fluoride (PVDF) membranes and the membranes were blocked with 5% skim milk in Tris-buffered saline solution containing 0.1% Tween-20. The membrane was then immunoblotted with primary antibodies, anti-phospho-Akt, anti-phospho-extracellular signal-regulated protein kinase (ERK), anti-ChAT and anti-f3-actin (Santa Cruz Biotechnology, Santa Cruz, USA), and this was followed by incubation with horseradish peroxidase-conjugated anti-rabbit or anti-mouse secondary antibodies (Stressgen, USA). Blots were developed using an enhanced chemiluminescence (ECL) solution (Thermo, USA).

Akt = Akt phosphorylation in N2a cells (western blot); type: cell-based, mouse; conditions: compared with NGF (FIG. 10)
Text: as §1

IDE = IDE mRNA expression in HMO6 human microglial cells (qPCR); type: cell-based
Description: HMO6 human microglial cell line was kindly provided by Dr. SU Kim (Chung-Ang University, Korea). HMO6 cells were grown in Dulbecco's Modified Eagle's Medium (DMEM) (Hyclone, USA) supplemented with 10% fetal bovine serum, 100 U/ml penicillin, and 100 μg/ml streptomycin (Invitrogen, USA). Cultures were maintained under 5% CO2 at 37° C. in tissue culture flasks. Cells were grown to >90% confluency and subjected to no more than 20 cell passages. Medium was changed every 2-3 days. Subconfluent cells were harvested and seeded at a density of 5×10^5 cells or 5×10^6 cells in poly-L-lysine-coated 35-mm or 60-mm culture plates. After 24 h of plating, the medium was replaced with serum-free DMEM, washed once with phosphate buffered saline (PBS), and treated with Rg3 or Aβ42.
Total RNA extracts from HMO6 cells or perfused brain tissue were prepared using the Trizol method (Invitrogen). cDNA was synthesized from RNA by reverse transcription of 1 μg total RNA using the Improm-II reverse transcription system (Promega, Wis., USA) and oligo dT primers in a total volume of 20 μl. PCR amplification was performed using the primers listed in Table 1 (Bioneer, Korea). qPCR reactions were run on a Rotor-Gene 6000 (Corbett Research, Sydney, Australia) using a SensiMix™ SYBR Hi-ROX Kit (Bioline, UK) in 20 μl reaction mixtures. Each real-time-PCR master mix contained 10 μl 2× enzyme master mix, 7 μl RNase free water, 1 μl of each primer (10 pM each), and 1 μl diluted template. The PCR was performed with an initial pre-incubation step for 15 min at 95° C., followed by 45 cycles of 95° C. for 15 s, annealing at 52° C. for 15 s, and extension at 72° C. for 10 s. […] Relative sample expression levels were calculated using Rotor-Gene 6000 Series Software 1.7 and were expressed relative to β-actin for mice or glyceraldehyde 3-phosphate dehydrogenase for HMO6 cells and corrected for between-run variability. Data for the experimental samples are expressed as a percentage of the internal control gene. […]

caveolin1 = experiment: Caveolin1 immunocytochemistry in HMO6 cells; type: cell-based, human; conditions: Rg3 5 μg/ml, 24 h, immunocytochemistry (FIG. 20)
Description: (§2) FIG. 20 is a fluorescence microscopic image showing a result of immunocytochemical analysis investigating the expression of caveolin and clathrin in HMO6 cells treated with or without Rg3. HMO6 cells were treated with Rg3 (5 μg/ml) for 24 h after plated on chamber slides and then the cells were stained with primary antibodies binding specifically to caveolin and clathrin, respectively and counterstained with DAPI. The length of scale bar represents 10 μm.
(§3) The present inventors investigated whether ginsenosides can induce the expression of SRA, clathrin, caveolin 1, NEP or IDE and the differentiation of neurons actually through immunocytochemical analysis (ICC) and microscopic observations. Specifically, Cultured HMO6 cells were fixed in 4% paraformaldehyde (in 1×PBS) for 15 min, washed twice with 1×PBS supplemented with 100 mM glycine for 5 min, and incubated with permeabilization buffer consisting of 0.1% Triton X-100 (Sigma-Aldrich, USA) in 1×PBS for 30 min at room temperature. Blocking was performed with 1% bovine serum albumin (BSA, Sigma-Aldrich, USA) for 30 min at room temperature. Then, SRA, clathrin, caveolin1, NEP, or IDE mouse monoclonal antibody (1:200; Santa Cruz Biotechnology, USA) was added to 1% BSA in PBS with Tween 20 (PBST) and incubated for 2 h at room temperature. […]

clathrin = experiment: Clathrin immunocytochemistry in HMO6 cells; type: cell-based, human; conditions: Rg3 5 μg/ml, 24 h, immunocytochemistry (FIG. 20)
Description: as §2, §3

[1] = Rg3-treated HMO6 cells (FIG. 14)

CC(C)=CCC[C@](C)(O[C@@H]1O[C@H](CO)[C@@H](O)[C@H](O)[C@H]1O)[C@H]1CC[C@]2(C)[C@@H]1[C@H](O)C[C@@H]1[C@@]3(C)CC[C@H](O[C@@H]4O[C@H](CO)[C@@H](O)[C@H](O)[C@H]4O[C@@H]4O[C@H](CO)[C@@H](O)[C@H](O)[C@H]4O)C(C)(C)[C@@H]3CC[C@]12C [ginsenoside Rd]
acetylcholine production (acetylcholine): increased significantly | ERK activation (phosphorylation) (ERK): could activate ERK and Akt with phosphorylation as much as NGF | Akt activation (phosphorylation) (Akt): could activate ERK and Akt with phosphorylation as much as NGF

CC(C)=CCC[C@](C)(O[C@@H]1O[C@H](CO)[C@@H](O)[C@H](O)[C@H]1O)[C@H]1CC[C@]2(C)[C@@H]1[C@H](O)C[C@@H]1[C@@]3(C)CC[C@H](O)C(C)(C)[C@@H]3[C@@H](O[C@@H]3O[C@H](CO)[C@@H](O)[C@H](O)[C@H]3O[C@@H]3O[C@@H](C)[C@H](O)[C@@H](O)[C@H]3O)C[C@]12C [ginsenoside Re]
acetylcholine production (acetylcholine): increased significantly | ERK activation (phosphorylation) (ERK): could activate ERK and Akt with phosphorylation as much as NGF | Akt activation (phosphorylation) (Akt): could activate ERK and Akt with phosphorylation as much as NGF

CC(C)=CCC[C@](C)(O)[C@H]1CC[C@]2(C)[C@@H]1[C@H](O)C[C@@H]1[C@@]3(C)CC[C@H](O[C@@H]4O[C@H](CO)[C@@H](O)[C@H](O)[C@H]4O[C@@H]4O[C@H](CO)[C@@H](O)[C@H](O)[C@H]4O)C(C)(C)[C@@H]3CC[C@]12C [ginsenoside Rg3]
IDE mRNA (IDE; HMO6 cells, Aβ42 (5 μM) and/or Rg3 (2.5 or 5 μg/ml), 24 h (FIG. 15E)): increased significantly | IDE expression versus untreated control group (IDE; [1]): about six-fold higher | IDE mRNA expression (IDE; [1]): dose-dependently increased | caveolin1 expression (caveolin1): highly expressed | clathrin expression (clathrin): highly expressed
